# From PMC11892739, “Site-specific molecular glues for the 14-3-3/Tau pS214 protein–protein interaction via reversible covalent imine tethering” (RSC Medicinal Chemistry, 2025)
# Molecular target: T1, 14-3-3γ/Tau pS214 complex (Homo sapiens, UniProt P61981)
# T1 construct: made in house; host or cells: NiCo21 (DE3) E. coli
# Assay: Differential scanning fluorimetry of 14-3-3γ with Tau pS214 peptide and compounds
# Assay type: binding
# Details: compound 30 equiv., Tau pS214 10 equiv.
# Protocol: Fig. 5 a Phospho-site selective 14-3-3/Tau PPI stabilization. b SF250μM of selected compounds for stabilization of the 14-3-3γ complex with Tau pS214 and Tau pS324 peptides based on the internal DMSO reference. Mean of two separately performed experiments (see ESI ^† Fig. S9 for the corresponding binding curves). c Differential scanning fluorimetry assay results. Identified melting temperatures (Tm) of 14-3-3γ in the presence of the Tau pS214 or pS324 peptide and compounds 1 and 18. […]
# chromatography (HisTrap high performance cartridges, Cytiva). […] Dialyzed protein was concentrated to ∼40 mg/mL, analyzed by Q -Tof LC/MS, and aliquots were flash -frozen for storage at −80 °C. […]
# DSF was performed using 40 µl samples containing 2.5 µM 14 -3-3ζ, 25 µM Tau peptide (Tau pS2, Tau pS214 or Tau pS324), […] (1% DMSO) and 5x ProteoOrange (Lumiprobe, 5000x stock in DMSO) in 10 mM HEPES, 150 mM NaCl, 50 µM TCEP (pH 7.4). […] Fluorescence intensity was determined using excitation ( λem=525/20 nm) and emission ( λex=570/20 nm) filters.
# Based on these melting curves, the negative derivative melting curve is obtained from which the melting temperature Tm was determined. All described melting temperatures are based on two or three independent experiments, from which the average and standard deviations were determined. […]
# T1 sequence (P61981 whole entry, other chains not shown): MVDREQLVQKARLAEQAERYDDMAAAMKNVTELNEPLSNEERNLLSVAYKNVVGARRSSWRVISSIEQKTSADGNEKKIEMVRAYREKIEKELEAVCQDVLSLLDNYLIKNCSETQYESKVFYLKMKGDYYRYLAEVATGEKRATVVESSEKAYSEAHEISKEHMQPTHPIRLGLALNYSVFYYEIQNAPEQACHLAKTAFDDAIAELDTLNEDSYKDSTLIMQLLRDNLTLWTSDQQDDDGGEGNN
row,"increase in 14-3-3γ melting temperature on addition of compound, Tau pS214 complex",SMILES
1,~1.7 °C,CCc1ccc(-c2nccn2-c2ccc(C=O)c(Br)c2)cc1 [Compound 18]
2,~0.6 °C,O=Cc1ccc(-n2ccnc2-c2ccccc2)cc1Br [Compound 1]
